Series [1] is described as follows: Solubility of crystal Forms in pH 6.8 buffer (1 hour equilibration, filtration, HPLC). The following applies: for Solubility in pH 6.8 buffer: 20 mg in 1 mL, equilibrated for 1 hour, 0.45 μm filter, HPLC; for solubility in pH 6.8 buffer compared to existing crystal Forms: comparison with crystal Forms A and B. In kind it is physicochemical. As for the experimental part: The solubility of several new crystal Forms prepared in the above examples and Form A and B (prepared according to the method of WO2014128588A1) in a pH buffer solution (pH 6.8) was determined. 20 mg Form VIII, Form IX, Form XIV, Form A and Form B was precisely weighed and placed in a 2-mL glass vial, 1 mL of pH 6.8 buffer was added, sealed with cap, and mixed on a rotating mixer. After the suspension was equilibrated for 1 hour, the mixture was filtered through a 0.45 μm needle filter, and the concentration of 6-Acetyl-8-cyclopentyl-5-methyl-2-(5-piperazin-1-yl-pyridin-2-ylamino)-8H-pyrido[2,3-d]pyrimidin-7-one in the filtrate was analyzed by HPLC to obtain the solubility of different crystal Forms. The solubility of the polymorphs of 6-Acetyl-8-cyclopentyl-5-methyl-2-(5-piperazin-1-yl-pyridin-2-ylamino)-8H-pyrido[2,3-d]pyrimidin-7-one is shown in the following table: […]

The conditions of series [2]: prior art statement; cited from earlier work.
Series [3] is described as follows: Dissolution rate in pH 6.8 buffer. In kind it is physicochemical. The following applies: comparison with crystal Forms A and B.

Molecules are shown by their SMILES.

As to `CC(=O)c1c(C)c2cnc(Nc3ccc(N4CCNCC4)cn3)nc2n(C2CCCC2)c1=O` [Form A, 6-Acetyl-8-cyclopentyl-5-methyl-2-(5-piperazin-1-yl-pyridin-2-ylamino)-8H-pyrido[2,3-d]pyrimidin-7-one, reference compound], the “Solubility in pH 6.8 buffer” value in series [1] worked out at 0.002 mg/mL. Further, the solubility in water result in series [2] is recorded as “very small”.

`CC(=O)c1c(C)c2cnc(Nc3ccc(N4CCNCC4)cn3)nc2n(C2CCCC2)c1=O` [Form B, 6-Acetyl-8-cyclopentyl-5-methyl-2-(5-piperazin-1-yl-pyridin-2-ylamino)-8H-pyrido[2,3-d]pyrimidin-7-one, reference compound]: in series [1], the “Solubility in pH 6.8 buffer” value was 0.003 mg/mL. Besides, in series [2], the solubility in water result is given as “very small”.

Turning to `CC(=O)c1c(C)c2cnc(Nc3ccc(N4CCNCC4)cn3)nc2n(C2CCCC2)c1=O` [Form IX, 6-Acetyl-8-cyclopentyl-5-methyl-2-(5-piperazin-1-yl-pyridin-2-ylamino)-8H-pyrido[2,3-d]pyrimidin-7-one], in series [1], the “Solubility in pH 6.8 buffer” value worked out at 0.015 mg/mL.

Consider `CC(=O)c1c(C)c2cnc(Nc3ccc(N4CCNCC4)cn3)nc2n(C2CCCC2)c1=O` [Form VIII, 6-Acetyl-8-cyclopentyl-5-methyl-2-(5-piperazin-1-yl-pyridin-2-ylamino)-8H-pyrido[2,3-d]pyrimidin-7-one], for which, in series [1], the “Solubility in pH 6.8 buffer” value is given as 0.010 mg/mL; the “solubility in pH 6.8 buffer compared to existing crystal Forms” value is “greater than the existing crystal Forms A and B”. The “dissolution rate in pH 6.8 buffer compared to existing crystal Forms” value in series [3] was “greater than the existing crystal Forms A and B”.

As to `CC(=O)c1c(C)c2cnc(Nc3ccc(N4CCNCC4)cn3)nc2n(C2CCCC2)c1=O` [Form XI, 6-Acetyl-8-cyclopentyl-5-methyl-2-(5-piperazin-1-yl-pyridin-2-ylamino)-8H-pyrido[2,3-d]pyrimidin-7-one], the “solubility in pH 6.8 buffer compared to existing crystal Forms” value in series [1] was “greater than the existing crystal Forms A and B”. The “dissolution rate in pH 6.8 buffer compared to existing crystal Forms” value in series [3] was “greater than the existing crystal Forms A and B”.

Turning to `CC(=O)c1c(C)c2cnc(Nc3ccc(N4CCNCC4)cn3)nc2n(C2CCCC2)c1=O` [Form XIV, 6-Acetyl-8-cyclopentyl-5-methyl-2-(5-piperazin-1-yl-pyridin-2-ylamino)-8H-pyrido[2,3-d]pyrimidin-7-one], in series [1], the “Solubility in pH 6.8 buffer” value was determined as 0.012 mg/mL; the “solubility in pH 6.8 buffer compared to existing crystal Forms” value is “greater than the existing crystal Forms A and B”. In addition, the “dissolution rate in pH 6.8 buffer compared to existing crystal Forms” value in series [3] was “greater than the existing crystal Forms A and B”.

Values taken from patent publication US10544142B2, “Crystal forms of palbociclib, and preparation method and use therefor” (SHANGHAI BEGREAT PHARMATECH, priority 2016, dated 2020).
